From patent US11266715B2, “C3A receptor agonists for use against ischemic brain injury, stroke, traumatic brain injury, spinal cord injury and neurodegenerative disorders” (priority 2016, dated 2022)
“Also recorded” adds a separate entry of the source.

Experiments:
microglia and astrocytes = details: in vitro; cited from earlier work
[1] = test system: mice subjected to neonatal hypoxia-ischemia; details: single i.c.v. injection 1 h after HI, wild-type mice tested as adults (42 days later); not in C3aR−/− mice; cited from earlier work
NeuN+ cells = assay: NeuN positive cell density in dorsal hippocampus after neonatal HI; format: in vivo, mouse
Method: Neuronal nuclei (NeuN), growth associated protein 43 (GAP-43), synapsin I (SYN), vesicular glutamate transporter 1 (VGLUT1), Glial Fibrillary Acidic Protein (GFAP) and ionized calcium-binding adapter molecule 1 (Iba-1) were visualized in the cornu ammonis (CA) and dentate gyrus (DG) of the dorsal hippocampus by immunohistochemistry. Briefly, following heat-induced antigen retrieval with 0.01 M citrate buffer (pH 6, 0.05% Tween 20) for 3×5 min, sections were washed 3×5 min with PBS-T (0.05% Tween 20), non-specific protein binding was reduced by incubation with blocking buffer [4% normal donkey serum (NeuN and Iba-1), 1% bovine serum albumin (GAP-43 and SYN), 3% normal goat serum (VGLUT1), 2% bovine serum albumin (GFAP) in PBS-T] for 1 h at room temperature (RT). Tissue was then incubated with the primary antibody [anti-NeuN biotinylated (1:200, MAB 377B, Millipore, Mass., USA), anti-GAP-43 (1:1000, MAB347, Millipore, Mass., USA), anti-SYN (1:150, SC-7379, Santa Cruz, Calif., USA), anti-VGLUT1 (1:500, AB5905, Millipore, Mass., USA), anti-GFAP (1:200, Z0334, Dako, Stockholm, Sweden), anti-Iba-1 (1:500, 019-19741, Wako, Osaka, Japan)] in blocking buffer overnight at 4° C. One slide per staining batch was incubated only with blocking buffer without primary antibody and used as a negative control. Next, sections were washed 3×5 min with PBS-T and incubated with the secondary antibody [rabbit-anti mouse biotinylated Ig (1:200, GAP-43, E0354, Dako, Stockholm, Sweden), donkey-anti goat biotinylated Ig (1:200, SYN, 705065147, Jackson ImmunoResearch Inc., PA, USA), Alexa Fluor 488 goat-anti guinea pig Ig (1:500, VGLUT1, A11073, Molecular Probes, Oregon, USA), Alexa Fluor 488 goat-anti rabbit (1:2000, GFAP, A11034, Molecular Probes, Oregon, USA), donkey-anti rabbit biotinylated (1:500, Iba-1, 711-065-152, Jackson ImmunoResearch Inc., PA, USA), in blocking buffer for 1 h at RT. After washing 3×5 min with PBS-T, sections were incubated with Streptavidin-Cy3 (1:100 (GAP-43, SYN), 1:300 (NeuN), S6402, Sigma-Aldrich, Missouri, USA) in blocking buffer for 1 h at RT. Then, sections were washed 3×5 min with PBS-T, mounted with Pro Long Gold (P36931, Life Technologies, CA, USA) and cover slipped for 24 h before being sealed with nail polish. […]
NeuN positive cells, GFAP positive relative area, as well as GAP-43, SYN, and VGLUT1 positive puncta were counted by using MetaMorph software (ver. 7.8.6, Molecular Devices, CA, USA) on confocal images obtained with a 20× (NeuN and GFAP) or 63× (GAP-43, SYN, and VGLUT1) objective (Carl Zeiss LSM 700 Laser Scanning Microscope, Jena, Germany). Iba-1 positive cell somata were counted on bright field images obtained with a 20× objective (Nikon Eclipse 80i). […]

## C3a: Purified human C3a peptide (Complement Technologies), C3a receptor agonist, amino acid sequence SEQ ID NO: 1
Microglia and astrocytes
  NGF expression: induces upregulation of neural growth factor (NGF)
[1]
  HI-induced cognitive/memory impairment after single intraventricular C3a: prevented HI-induced cognitive impairment; also recorded: ameliorated memory impairment
NeuN+ cells; both HI groups, p<0.01 and p<0.05
  neuronal density in CA1 and CA3, ipsilesional vs contralesional hemisphere: decreased in the ipsilesional hemisphere
NeuN+ cells; data not shown
  NeuN+ cell density in the DG: No effect
NeuN+ cells; p<0.01
  number of NeuN+ cells in injured CA3 vs sham mice: lower compared with sham mice
NeuN+ cells; p<0.05 for PBS
  number of NeuN+ cells in injured CA1 vs sham mice: of PBS but not C3a treated mice was lower compared with sham mice
